Measured values taken from patent US9169254B2, “Spiroimidazolone derivative” (Chugai Seiyaku Kabushiki Kaisha, priority 2009, dated 2015).

What follows are compounds tested against T1, human PTH1 receptor (Homo sapiens, UniProt Q03431) (assay: In vitro cAMP signal activity in HKRK-B7 cells (LLC-PK1 cells overexpressing the human PTH1 receptor)). Conditions: HKRK-B7 cells; compound at 1×10^−3 M; cAMP produced as percentage of that produced by hPTH(1-34) at 100 nM.
T1 sequence (Q03431 27-593): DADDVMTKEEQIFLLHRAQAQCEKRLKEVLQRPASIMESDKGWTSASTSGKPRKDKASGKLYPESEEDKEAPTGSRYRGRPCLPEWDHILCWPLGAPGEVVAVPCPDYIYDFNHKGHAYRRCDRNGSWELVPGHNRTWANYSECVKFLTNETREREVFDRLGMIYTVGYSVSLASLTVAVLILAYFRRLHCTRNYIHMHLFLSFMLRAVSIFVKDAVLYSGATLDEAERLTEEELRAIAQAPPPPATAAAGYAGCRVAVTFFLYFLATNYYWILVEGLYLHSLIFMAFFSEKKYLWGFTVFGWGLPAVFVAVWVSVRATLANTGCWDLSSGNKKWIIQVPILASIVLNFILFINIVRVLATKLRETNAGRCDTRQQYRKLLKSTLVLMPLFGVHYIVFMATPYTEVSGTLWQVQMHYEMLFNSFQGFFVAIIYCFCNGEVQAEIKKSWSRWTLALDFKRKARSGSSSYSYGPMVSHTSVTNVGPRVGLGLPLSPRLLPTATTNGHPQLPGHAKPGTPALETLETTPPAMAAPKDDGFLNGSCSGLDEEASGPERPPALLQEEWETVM
Type: cell-based

Row | Structure (SMILES) | cAMP production activity (%)
1 | Cc1cc(C(=O)N2CCCO2)cc(C)c1CCS(=O)(=O)N1CCC2(CC1)N=C(C1CCC(C)CC1)NC2=O (centres unmarked) [Compound 1182, 8-{2-[4-(isoxazolidine-2-carbonyl)-2,6-dimethyl-phenyl]-ethanesulfonyl}-2-(4-methyl-cyclohexyl)-1,3,8-triaza-spiro[4.5]dec-1-en-4-one] | 109
2 | Cc1cc(C(=O)N2CCS(=O)(=O)CC2)cc(C)c1CCS(=O)(=O)N1CCC2(CC1)N=C(C1CCC(C)CC1)NC2=O (centres unmarked) [Compound 1183, 8-{2-[4-(1,1-dioxo-1λ^6-thiomorpholine-4-carbonyl)-2,6-dimethyl-phenyl]-ethanesulfonyl}-2-(4-methyl-cyclohexyl)-1,3,8-triaza-spiro[4.5]dec-1-en-4-one] | 90
3 | Cc1cc(C(=O)N2CCC(OC[C@H](O)CO)CC2)cc(C)c1CCS(=O)(=O)N1CCC2(CC1)N=C(CCCCCCCCC(F)(F)F)NC2=O [Compound 1184, 8-(2-{4-[4-((R)-2,3-dihydroxy-propoxy)-piperidine-1-carbonyl]-2,6-dimethyl-phenyl}-ethanesulfonyl)-2-(9,9,9-trifluoro-nonyl)-1,3,8-triaza-spiro[4.5]dec-1-en-4-one] | 108
4 | Cc1cc(C(=O)N2CCC(C)(O)CC2)cc(C)c1/C=C/S(=O)(=O)N1CCC2(CC1)N=C(c1ccc(Cl)c(Cl)c1)NC2=O [Compound 1185, 2-(3,4-Dichloro-phenyl)-8-{(E)-2-[4-(4-hydroxy-4-methyl-piperidine-1-carbonyl)-2,6-dimethyl-phenyl]-ethenesulfonyl}-1,3,8-triaza-spiro[4.5]dec-1-en-4-one] | 102
5 | Cc1cc(C(=O)N2CCC(C)(O)CC2)cc(C)c1/C=C/S(=O)(=O)N1CCC2(CC1)N=C(c1ccc(F)c(Cl)c1)NC2=O [Compound 1186, 2-(3-chloro-4-fluoro-phenyl)-8-{(E)-2-[4-(4-hydroxy-4-methyl-piperidine-1-carbonyl)-2,6-dimethyl-phenyl]-ethenesulfonyl}-1,3,8-triaza-spiro[4.5]dec-1-en-4-one] | 110
6 | Cc1cc(C(=O)N2CCC(C)(O)CC2)cc(C)c1/C=C/S(=O)(=O)N1CCC2(CC1)N=C(c1cccc(CC#N)c1)NC2=O [Compound 1187, [3-(8-{(E)-2-[4-(4-hydroxy-4-methyl-piperidine-1-carbonyl)-2,6-dimethyl-phenyl]-ethenesulfonyl}-4-oxo-1,3,8-triaza-spiro[4.5]dec-1-en-2-yl)-phenyl]-acetonitrile] | 75
7 | Cc1cc(C(=O)N2CCC(C)(O)CC2)cc(C)c1/C=C/S(=O)(=O)N1CCC2(CC1)N=C(c1ccc(C(F)(F)F)c(Cl)c1)NC2=O [Compound 1188, 2-(3-chloro-4-trifluoromethyl-phenyl)-8-{(E)-2-[4-(4-hydroxy-4-methyl-piperidine-1-carbonyl)-2,6-dimethyl-phenyl]-ethenesulfonyl}-1,3,8-triaza-spiro[4.5]dec-1-en-4-one] | 99
8 | Cc1cc(C(=O)N2CCC(C)(O)CC2)cc(C)c1/C=C/S(=O)(=O)N1CCC2(CC1)N=C(c1ccc(S(F)(F)(F)(F)F)cc1)NC2=O [Compound 1189, 8-{(E)-2-[4-(4-hydroxy-4-methyl-piperidine-1-carbonyl)-2,6-dimethyl-phenyl]-ethenesulfonyl}-2-(4-pentafluorosulfanyl-phenyl)-1,3,8-triaza-spiro[4.5]dec-1-en-4-one] | 104
9 | Cc1cc(C(=O)N2CCC(C)(O)CC2)cc(C)c1/C=C/S(=O)(=O)N1CCC2(CC1)N=C(c1cccc(S(F)(F)(F)(F)F)c1)NC2=O [Compound 1190, 8-{(E)-2-[4-(4-hydroxy-4-methyl-piperidine-1-carbonyl)-2,6-dimethyl-phenyl]-ethenesulfonyl}-2-(3-pentafluorosulfanyl-phenyl)-1,3,8-triaza-spiro[4.5]dec-1-en-4-one] | 108
10 | Cc1cc(C(=O)N2CCC(C)(O)CC2)cc(C)c1/C=C/S(=O)(=O)N1CCC2(CC1)N=C(c1ccc(COc3cccc(C(F)(F)F)c3)cc1)NC2=O [Compound 1191, 8-{(E)-2-[4-(4-hydroxy-4-methyl-piperidine-1-carbonyl)-2,6-dimethyl-phenyl]-ethenesulfonyl}-2-[4-(3-trifluoromethyl-phenoxymethyl)-phenyl]-1,3,8-triaza-spiro[4.5]dec-1-en-4-one] | 66
11 | Cc1cc(C(=O)N2CCC(C)(O)CC2)cc(C)c1/C=C/S(=O)(=O)N1CCC2(CC1)N=C(c1ccc(F)c(C)c1C)NC2=O [Compound 1192, 2-(4-fluoro-2,3-dimethyl-phenyl)-8-{(E)-2-[4-(4-hydroxy-4-methyl-piperidine-1-carbonyl)-2,6-dimethyl-phenyl]-ethenesulfonyl}-1,3,8-triaza-spiro[4.5]dec-1-en-4-one] | 100
12 | Cc1cc(C2=NC3(CCN(S(=O)(=O)/C=C/c4c(C)cc(C(=O)N5CCC(C)(O)CC5)cc4C)CC3)C(=O)N2)ccc1C(F)(F)F [Compound 1193, 8-{(E)-2-[4-(4-hydroxy-4-methyl-piperidine-1-carbonyl)-2,6-dimethyl-phenyl]-ethenesulfonyl}-2-(3-methyl-4-trifluoromethyl-phenyl)-1,3,8-triaza-spiro[4.5]dec-1-en-4-one] | 86
13 | Cc1cc(C(=O)N2CCC(C)(O)CC2)cc(C)c1/C=C/S(=O)(=O)N1CCC2(CC1)N=C(c1ccc3c(c1)OCO3)NC2=O [Compound 1194, 2-benzo[1,3]dioxol-5-yl-8-{(E)-2-[4-(4-hydroxy-4-methyl-piperidine-1-carbonyl)-2,6-dimethyl-phenyl]-ethenesulfonyl}-1,3,8-triaza-spiro[4.5]dec-1-en-4-one] | 62
14 | Cc1cc(C(=O)N2CCC(C)(O)CC2)cc(C)c1/C=C/S(=O)(=O)N1CCC2(CC1)N=C(c1ccc(C(F)(F)C(F)(F)F)cc1)NC2=O [Compound 1195, 8-{(E)-2-[4-(4-hydroxy-4-methyl-piperidine-1-carbonyl)-2,6-dimethyl-phenyl]-ethenesulfonyl}-2-(4-pentafluoroethyl-phenyl)-1,3,8-triaza-spiro[4.5]dec-1-en-4-one] | 82
15 | Cc1cc(C(=O)N2CCC(C)(O)CC2)cc(C)c1/C=C/S(=O)(=O)N1CCC2(CC1)N=C(c1cccc(C(F)(F)C(F)(F)F)c1)NC2=O [Compound 1196, 8-{(E)-2-[4-(4-hydroxy-4-methyl-piperidine-1-carbonyl)-2,6-dimethyl-phenyl]-ethenesulfonyl}-2-(3-pentafluoroethyl-phenyl)-1,3,8-triaza-spiro[4.5]dec-1-en-4-one] | 76
16 | Cc1cc(C(=O)N2CCC(C)(O)CC2)cc(C)c1/C=C/S(=O)(=O)N1CCC2(CC1)N=C(c1ccc(OC(C)(C)C(F)(F)F)c(C(F)(F)F)c1)NC2=O [Compound 1197, 8-{(E)-2-[4-(4-hydroxy-4-methyl-piperidine-1-carbonyl)-2,6-dimethyl-phenyl]-ethenesulfonyl}-2-[4-(2,2,2-trifluoro-1,1-dimethyl-ethoxy)-3-trifluoromethyl-phenyl]-1,3,8-triaza-spiro[4.5]dec-1-en-4-one] | 74
17 | Cc1cc(C(=O)N2CCC(C)(O)CC2)cc(C)c1/C=C/S(=O)(=O)N1CCC2(CC1)N=C(c1ccc(OC(F)(F)F)cc1)NC2=O [Compound 1198, 8-{(E)-2-[4-(4-hydroxy-4-methyl-piperidine-1-carbonyl)-2,6-dimethyl-phenyl]-ethenesulfonyl}-2-(4-trifluoromethoxy-phenyl)-1,3,8-triaza-spiro[4.5]dec-1-en-4-one] | 88
18 | Cc1cc(C(=O)N2CCC(C)(O)CC2)cc(C)c1/C=C/S(=O)(=O)N1CCC2(CC1)N=C(c1ccc(OCC(F)(F)C(F)F)c(C(F)(F)F)c1)NC2=O [Compound 1199, 8-{(E)-2-[4-(4-hydroxy-4-methyl-piperidine-1-carbonyl)-2,6-dimethyl-phenyl]-ethenesulfonyl}-2-[4-(2,2,3,3-tetrafluoro-propoxy)-3-trifluoromethyl-phenyl]-1,3,8-triaza-spiro[4.5]dec-1-en-4-one] | 77
19 | Cc1cc(C(=O)N2CCC(C)(O)CC2)cc(C)c1/C=C/S(=O)(=O)N1CCC2(CC1)N=C(c1ccc(OCC(F)(F)F)c(C(F)(F)F)c1)NC2=O [Compound 1200, 8-{(E)-2-[4-(4-hydroxy-4-methyl-piperidine-1-carbonyl)-2,6-dimethyl-phenyl]-ethenesulfonyl}-2-[4-(2,2,2-trifluoro-ethoxy)-3-trifluoromethyl-phenyl]-1,3,8-triaza-spiro[4.5]dec-1-en-4-one] | 73
20 | Cc1cc(C(=O)N2CCC(C)(O)CC2)cc(C)c1/C=C/S(=O)(=O)N1CCC2(CC1)N=C(c1ccc(OCC(F)(F)C(F)F)c(Cl)c1)NC2=O [Compound 1201, 2-[3-chloro-4-(2,2,3,3-tetrafluoro-propoxy)-phenyl]-8-{(E)-2-[4-(4-hydroxy-4-methyl-piperidine-1-carbonyl)-2,6-dimethyl-phenyl]-ethenesulfonyl}-1,3,8-triaza-spiro[4.5]dec-1-en-4-one] | 77
